According to patent US6875421B2, “Method for detecting chitin-containing organisms” (Albert Einstein College of Medicine of Yeshiva University, priority 1997, dated 2005):

Experiments:
P. capitis nits = experiment: Visualizing nits on human hair under UV light; conditions: hair with attached nits dipped into 1% solution for two minutes, examined wet under UV light
From the text: Human hair with attached P. capitis nits obtained as a waste product after barbering were obtained and dipped into a 1% solution of calcofluor white for two minutes. The hair was removed and examined wet under UV light. […] Identification was easy, specific, and totally unambiguous.

[1] = Toxicity: solution spread on dorsum of hands of volunteers; format: in vivo, human; conditions: 1% solution on dorsum of hands, 12 hours continuously
Procedure: The 1% solution was also spread on the dorsum of four hands of volunteers and allowed to remain continuously for 12 hours before being washed off.

deer ticks = experiment: Visualizing deer ticks under long range UV light; design: species or system deer tick
From the text: Use as a visualizing agent for deer ticks was investigated as well. Live deer ticks were gathered from a wooded area in Westchester County, N.Y. and sprayed with a 1% solution of Calcofluor white. The ticks were placed on a white cotton sheet and exposed to long range UV light from a portable UV lamp.

O=S(=O)(O)c1cc(Nc2nc(Nc3ccccc3)nc(N(CCO)CCO)n2)ccc1/C=C/c1ccc(Nc2nc(Nc3ccccc3)nc(N(CCO)CCO)n2)cc1S(=O)(=O)O [calcofluor white]
visualization of nits (fluorescence) under UV light (P. capitis nits): clearly seen as brightly fluorescent white ovoid bodies | physical reactions such as pruritus, erythema, induration or discoloration [1]: did not provoke any physical reactions | physical sensation on skin [1]: caused no physical sensation | visualization of deer ticks (fluorescence) under long range UV light (deer ticks; live ticks sprayed with 1% solution, on white cotton sheet, portable UV lamp): easily visualized as brightly fluorescent objects | fluorescence of deer ticks after subsequent spray (deer ticks; ticks without autofluorescence, then sprayed and exposed to ultraviolet light): intense fluorescence
